Reference: patent US20110105514A1, “5,6,7,8-TETRAHYDRO-IMIDAZO[1,5-A]PYRAZINE COMPOUNDS” (priority 2008, published 2011)
pIC50: −log10 of the molar value. Read-outs that look alike come from different tables or passages of the source.

Key:
rat [1] = settings: cited from earlier work
rat [2] = settings: rat model; cited from earlier work
rat [3] = settings: cited from earlier work; remark: listed apart in the source
human orexin-2 receptor = biological target: T1, human orexin-2 receptor (Homo sapiens, UniProt O43614); test: FLIPR calcium assay of orexin receptor antagonistic activity, CHO cells expressing the human orexin-2 receptor; type: cell-based; settings: 3 nM orexin-A as agonist; for pIC50: value not normalized, read-out: OX2 IC50; for IC50: normalized using IC50 of on-plate reference compound (asterisk), read-out: OX2 IC50 (in nM), normalized value
T1 construct: expressed in transfected cells; host or cells: Chinese hamster ovary (CHO) cells
T1 sequence (O43614 1-444): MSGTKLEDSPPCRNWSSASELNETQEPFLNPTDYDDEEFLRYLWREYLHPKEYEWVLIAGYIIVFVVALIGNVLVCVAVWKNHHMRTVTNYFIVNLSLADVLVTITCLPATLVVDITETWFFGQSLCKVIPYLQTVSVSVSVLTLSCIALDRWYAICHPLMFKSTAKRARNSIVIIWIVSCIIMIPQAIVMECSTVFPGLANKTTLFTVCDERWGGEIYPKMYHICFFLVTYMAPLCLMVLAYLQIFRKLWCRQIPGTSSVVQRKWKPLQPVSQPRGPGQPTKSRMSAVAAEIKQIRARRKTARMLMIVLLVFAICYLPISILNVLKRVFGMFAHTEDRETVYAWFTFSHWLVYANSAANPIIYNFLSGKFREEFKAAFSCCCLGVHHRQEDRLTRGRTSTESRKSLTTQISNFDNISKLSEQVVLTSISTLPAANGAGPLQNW
Procedure: (§1) The orexin receptor antagonistic activity of the compounds of formula (I) is determined in accordance with the following experimental method.
(§2) Chinese hamster ovary (CHO) cells expressing the human orexin-1 receptor and the human orexin-2 receptor, respectively, are grown in culture medium (Ham F-12 with L-Glutamine) containing 300 μg/ml G418, 100 U/ml penicillin, 100 μg/ml streptomycin and 10% heat inactivated fetal calf serum (FCS). The cells are seeded at 20′000 cells/well into 384-well black clear bottom sterile plates (Greiner). The seeded plates are incubated overnight at 37° C. in 5% CO2.
(§3) Human orexin-A as an agonist is prepared as 1 mM stock solution in MeOH:water (1:1), diluted in HBSS containing 0.1% bovine serum albumin (BSA), NaHCO3: 0.375 g/l and 20 mM HEPES for use in the assay at a final concentration of 3 nM.
(§4) Antagonists are prepared as 10 mM stock solution in DMSO, then diluted in 384-well plates using DMSO followed by a transfer of the dilutions into in HBSS containing 0.1% bovine serum albumin (BSA), NaHCO3: 0.375 g/l and 20 mM HEPES. On the day of the assay, 50 μl of staining buffer (HBSS containing 1% FCS, 20 mM HEPES, NaHCO3: 0.375 g/l, 5 mM probenecid (Sigma) and 3 μM of the fluorescent calcium indicator fluo-4 AM (1 mM stock solution in DMSO, containing 10% pluronic) is added to each well. The 384-well cell-plates are incubated for 50 min at 37° C. in 5% CO2 followed by equilibration at RT for 30-120 min before measurement.
(§5) Within the Fluorescent Imaging Plate Reader (FLIPR Tetra, Molecular Devices), antagonists are added to the plate in a volume of […], incubated for 10 min and finally […] of agonist is added. Fluorescence is measured for each well at 1 second intervals, and the height of each fluorescence peak is compared to the height of the fluorescence peak induced by 3 nM orexin-A with vehicle in place of antagonist. For each antagonist, the IC50 value (the concentration of compound needed to inhibit 50% of the agonistic response) is determined and may be normalized using the obtained IC50 value of a on-plate reference compound (normalized values in Table 1 indicated by an asterisk*).
(§6) The calculated IC50 values of the compounds may fluctuate depending on the daily cellular assay performance. Fluctuations of this kind are known to those skilled in the art.

human orexin-1 receptor = biological target: T2, human orexin-1 receptor (Homo sapiens, UniProt O43613); test: FLIPR calcium assay of orexin receptor antagonistic activity, CHO cells expressing the human orexin-1 receptor; type: cell-based; settings: 3 nM orexin-A as agonist; for pIC50: value not normalized, read-out: OX1 IC50; for IC50: normalized using IC50 of on-plate reference compound (asterisk), read-out: OX1 IC50 (in nM), normalized value
T2 construct: expressed in transfected cells; host or cells: Chinese hamster ovary (CHO) cells
T2 sequence (O43613 1-425): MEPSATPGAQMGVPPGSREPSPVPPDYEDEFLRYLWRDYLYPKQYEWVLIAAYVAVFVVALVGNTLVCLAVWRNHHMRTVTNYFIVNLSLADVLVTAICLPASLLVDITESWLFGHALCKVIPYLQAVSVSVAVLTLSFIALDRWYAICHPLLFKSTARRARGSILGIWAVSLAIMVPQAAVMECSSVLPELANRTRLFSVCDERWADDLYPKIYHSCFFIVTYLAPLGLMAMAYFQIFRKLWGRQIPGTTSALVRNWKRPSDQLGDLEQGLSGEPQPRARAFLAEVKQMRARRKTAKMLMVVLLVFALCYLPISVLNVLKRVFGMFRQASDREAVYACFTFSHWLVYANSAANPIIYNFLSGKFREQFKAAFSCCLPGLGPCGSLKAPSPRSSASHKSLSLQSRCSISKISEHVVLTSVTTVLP
Procedure: as §1, §2, §3, §4, §5, §6

Structure (SMILES)	pIC50 (human orexin-2 receptor)	pIC50 (human orexin-1 receptor)	IC50 (human orexin-2 receptor) [nM]	IC50 (human orexin-1 receptor) [nM]	also measured
CNC(=O)[C@@H](c1ccccc1)N1CCc2cc(OC)c(OC)cc2[C@@H]1CCc1ccc(C(F)(F)F)cc1 [(2R)-2-{(1S)-6,7-dimethoxy-1-[2-(4-trifluoromethyl-phenyl)-ethyl]-3,4-dihydro-1H-isoquinolin-2-yl}-N-methyl-2-phenyl-acetamide]					alertness (active wake and locomotion) (rat [1]): decrease alertness; time spent in both REM and NREM sleep (rat [1]): dose-dependently increase the time spent in both REM and NREM sleep; memory function (rat [2]): enhance memory function; activity in post-traumatic stress disorder model (rat [3]): active
CNC(=O)[C@@H](c1ccccc1)N1CCn2c(C3CC3)nc(Cl)c2[C@@H]1CCc1ccc(Cl)c(F)c1 [Example 3, (R)-2′-{1-chloro-(S)-8-[2-(4-chloro-3-fluoro-phenyl)-ethyl]-3-cyclopropyl-5,6-dihydro-8H-imidazo[1,5-a]pyrazin-7-yl}-N-methyl-2′-phenyl-acetamide]	7.96	7.37			
CNC(=O)[C@@H](c1ccccc1)N1CCn2c(SC)nc(Cl)c2[C@@H]1CCc1ccc(C(F)(F)F)c(F)c1F [Example 8, (R)-2′-{1-chloro-(8)-8-[2-(2,3-difluoro-4-trifluoromethyl-phenyl)-ethyl]-3-methylsulfanyl-5,6-dihydro-8H-imidazo[1,5-a]pyrazin-7-yl}-N-methyl-2′-phenyl-acetamide]	7.68	7.25			
CCc1nc(Cl)c2n1CCN([C@@H](C(=O)NC)c1ccccc1)[C@H]2CCc1cccc(OC(F)F)c1 [Example 11, (R)-2′-{1-chloro-(S)-8-[2-(3-difluoromethoxy-phenyl)-ethyl]-3-ethyl-5,6-dihydro-8H-imidazo[1,5-a]pyrazin-7-yl}-N-methyl-2′-phenyl-acetamide]	8.70	7.35			
CNC(=O)[C@@H](c1ccccc1)N1CCn2c(C(F)(F)F)nc(C)c2[C@@H]1CCc1ccc(C(F)(F)F)cc1 [Example 13a, N-methyl-(R)-2′-{1-methyl-3-trifluoromethyl-(S)-8-[2-(4-trifluoromethyl-phenyl)-ethyl]-5,6-dihydro-8H-imidazo[1,5-a]pyrazin-7-yl}-2′-phenyl-acetamide]	8.10	6.59			
CCc1nc(C2CC2)n2c1C(CCc1ccc(C(F)(F)F)c(F)c1)N(C(C(=O)NC)c1ccccc1)CC2 [Example 17, (R)-2′-{3-cyclopropyl-1-ethyl-(8)-8-[2-(3-fluoro-4-trifluoromethyl-phenyl)-ethyl]-5,6-dihydro-8H-imidazo[1,5-a]pyrazin-7-yl}-N-methyl-2′-phenyl-acetamide]			8	384	
CCOc1nc(C(F)(F)F)c2n1CCN([C@@H](C(=O)NC)c1ccccc1)[C@H]2CCc1ccc(C(F)(F)F)cc1 [Example 21, (R)-2′-{3-ethoxy-1-trifluoromethyl-(S)-8-[2-(4-trifluoromethyl-phenyl)-ethyl]-5,6-dihydro-8H-imidazo[1,5-a]pyrazin-7-yl}-N-methyl-2′-phenyl-acetamide]			63	3540	
CCc1nc(S(C)(=O)=O)c2n1CCN([C@@H](C(=O)NC)c1ccccc1)[C@H]2CCc1ccc(C(F)(F)F)cc1 [Example 23, (R)-2′-{3-ethyl-1-methanesulfonyl-(S)-8-[2-(4-trifluoromethyl-phenyl)-ethyl]-5,6-dihydro-8H-imidazo[1,5-a]pyrazin-7-yl}-N-methyl-2′-phenyl-acetamide]			25	1680	
CNC(=O)[C@@H](c1ccccc1)N1CCn2c(C3CC3)nc(Cl)c2[C@@H]1CCc1cccc(C(F)(F)F)c1 [Example 26, (R)-2′-{1-chloro-3-cyclopropyl-(S)-8-[2-(3-trifluoromethyl-phenyl)-ethyl]-5,6-dihydro-8H-imidazo[1,5-a]pyrazin-7-yl}-N-methyl-2′-phenyl-acetamide]			7	91	
CCc1nc(C(F)(F)F)n2c1[C@H](CCc1ccc(C(F)(F)F)cc1)N([C@@H](C(=O)NC)c1ccccc1)CC2 [Example 28, (R)-2′-{1-ethyl-3-trifluoromethyl-(8)-8-[2-(4-trifluoromethyl-phenyl)-ethyl]-5,6-dihydro-8H-imidazo[1,5-a]pyrazin-7-yl}-N-methyl-2′-phenyl-acetamide]			13	505	
